# Measurements as given in ChEMBL document CHEMBL5465560, “Selectivity Literature for EUbOPEN Chemogenomic Library” (2024).
# Legend:
# [1] = system: Receptor-type tyrosine-protein kinase FLT3 (Homo sapiens), P36888 [UNDEFINED MUTATION]; test: Selectivity interaction (KinomeScan (DiscoverX)) EUB0000229b FLT3; conditions: at 1 µM
# [2] = target: T1, Serine/threonine-protein kinase LATS1 (Homo sapiens) (UniProt O95835); test: Selectivity interaction (Kinase panel (KiNativ target engagement assay in Jurkat cells)) EUB0001635a LATS1; type: cell-based; conditions: at 1 µM
# T1 sequence (whole entry): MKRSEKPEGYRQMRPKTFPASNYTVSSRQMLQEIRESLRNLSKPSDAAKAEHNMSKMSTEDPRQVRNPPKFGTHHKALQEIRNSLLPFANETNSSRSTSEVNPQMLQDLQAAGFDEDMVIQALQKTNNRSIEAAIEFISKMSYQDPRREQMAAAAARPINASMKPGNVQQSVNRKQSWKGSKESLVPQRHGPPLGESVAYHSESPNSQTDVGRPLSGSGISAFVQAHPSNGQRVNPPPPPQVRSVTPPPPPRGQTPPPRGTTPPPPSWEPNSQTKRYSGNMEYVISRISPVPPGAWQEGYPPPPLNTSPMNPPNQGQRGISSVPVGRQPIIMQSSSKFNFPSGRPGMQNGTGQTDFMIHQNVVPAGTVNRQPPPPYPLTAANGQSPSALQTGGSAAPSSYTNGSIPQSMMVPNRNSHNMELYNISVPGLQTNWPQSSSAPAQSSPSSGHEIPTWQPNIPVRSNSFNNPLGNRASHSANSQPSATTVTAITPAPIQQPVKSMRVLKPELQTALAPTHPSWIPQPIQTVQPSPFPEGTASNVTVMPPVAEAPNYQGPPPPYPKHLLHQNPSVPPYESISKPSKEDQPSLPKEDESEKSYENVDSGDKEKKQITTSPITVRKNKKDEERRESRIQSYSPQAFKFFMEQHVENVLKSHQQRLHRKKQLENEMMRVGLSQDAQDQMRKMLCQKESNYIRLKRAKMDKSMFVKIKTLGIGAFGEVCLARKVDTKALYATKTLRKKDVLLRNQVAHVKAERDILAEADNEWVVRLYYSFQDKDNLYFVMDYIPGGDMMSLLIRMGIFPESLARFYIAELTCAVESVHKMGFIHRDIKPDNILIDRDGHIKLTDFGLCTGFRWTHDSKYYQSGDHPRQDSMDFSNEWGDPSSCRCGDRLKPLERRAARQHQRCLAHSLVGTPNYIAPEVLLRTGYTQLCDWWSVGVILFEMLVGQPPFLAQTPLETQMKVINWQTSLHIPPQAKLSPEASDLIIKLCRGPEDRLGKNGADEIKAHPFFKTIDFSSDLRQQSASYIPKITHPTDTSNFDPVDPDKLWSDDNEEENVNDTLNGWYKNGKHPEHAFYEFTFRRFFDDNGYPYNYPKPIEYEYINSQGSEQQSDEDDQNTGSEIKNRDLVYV
# [3] = target: T2, Phosphatidylinositol 3-kinase C2 domain-containing subunit gamma (Homo sapiens) (UniProt O75747); test: Selectivity interaction (Adapta Assay) EUB0001632a PIK3C2G; conditions: at 10 µM
# T2 sequence (whole entry): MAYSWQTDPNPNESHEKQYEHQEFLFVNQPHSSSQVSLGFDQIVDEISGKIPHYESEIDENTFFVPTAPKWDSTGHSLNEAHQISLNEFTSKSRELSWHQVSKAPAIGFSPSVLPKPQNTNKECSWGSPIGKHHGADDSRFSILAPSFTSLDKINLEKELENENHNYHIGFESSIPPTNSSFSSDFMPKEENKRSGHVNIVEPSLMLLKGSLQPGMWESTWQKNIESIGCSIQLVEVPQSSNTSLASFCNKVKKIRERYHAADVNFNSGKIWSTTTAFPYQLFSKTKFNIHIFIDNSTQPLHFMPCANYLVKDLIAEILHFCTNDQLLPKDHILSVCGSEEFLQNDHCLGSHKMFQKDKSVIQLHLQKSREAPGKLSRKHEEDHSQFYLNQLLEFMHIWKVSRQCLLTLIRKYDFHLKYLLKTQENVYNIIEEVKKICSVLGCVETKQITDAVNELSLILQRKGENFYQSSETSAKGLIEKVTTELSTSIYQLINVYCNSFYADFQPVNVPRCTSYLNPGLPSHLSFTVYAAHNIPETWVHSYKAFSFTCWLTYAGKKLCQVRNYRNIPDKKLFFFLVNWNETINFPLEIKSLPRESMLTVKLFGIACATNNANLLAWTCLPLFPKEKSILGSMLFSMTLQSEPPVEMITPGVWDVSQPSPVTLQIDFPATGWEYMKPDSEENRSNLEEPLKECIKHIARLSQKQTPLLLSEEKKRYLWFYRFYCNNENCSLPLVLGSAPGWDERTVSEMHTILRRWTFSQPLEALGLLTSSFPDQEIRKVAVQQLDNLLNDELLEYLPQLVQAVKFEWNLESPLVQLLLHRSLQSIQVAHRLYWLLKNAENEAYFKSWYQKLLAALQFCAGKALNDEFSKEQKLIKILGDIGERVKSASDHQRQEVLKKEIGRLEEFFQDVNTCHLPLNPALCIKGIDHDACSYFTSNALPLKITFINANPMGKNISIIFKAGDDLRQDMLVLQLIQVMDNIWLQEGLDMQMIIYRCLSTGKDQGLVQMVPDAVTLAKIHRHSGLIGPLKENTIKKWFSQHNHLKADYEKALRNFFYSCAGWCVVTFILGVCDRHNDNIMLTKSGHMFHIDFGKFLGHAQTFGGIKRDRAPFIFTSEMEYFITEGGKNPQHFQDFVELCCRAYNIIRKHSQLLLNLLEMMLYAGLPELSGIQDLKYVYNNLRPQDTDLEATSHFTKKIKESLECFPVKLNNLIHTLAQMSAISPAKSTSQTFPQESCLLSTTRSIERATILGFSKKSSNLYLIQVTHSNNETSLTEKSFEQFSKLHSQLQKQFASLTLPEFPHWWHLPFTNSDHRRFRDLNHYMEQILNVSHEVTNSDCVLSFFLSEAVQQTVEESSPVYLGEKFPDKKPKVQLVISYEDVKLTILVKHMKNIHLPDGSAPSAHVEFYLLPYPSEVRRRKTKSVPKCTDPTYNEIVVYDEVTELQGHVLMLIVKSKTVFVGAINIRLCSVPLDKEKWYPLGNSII
# Sequence of Receptor-type tyrosine-protein kinase FLT3 (Homo sapiens), P36888 [UNDEFINED MUTATION] (P36888 whole entry, looked up, change not shown): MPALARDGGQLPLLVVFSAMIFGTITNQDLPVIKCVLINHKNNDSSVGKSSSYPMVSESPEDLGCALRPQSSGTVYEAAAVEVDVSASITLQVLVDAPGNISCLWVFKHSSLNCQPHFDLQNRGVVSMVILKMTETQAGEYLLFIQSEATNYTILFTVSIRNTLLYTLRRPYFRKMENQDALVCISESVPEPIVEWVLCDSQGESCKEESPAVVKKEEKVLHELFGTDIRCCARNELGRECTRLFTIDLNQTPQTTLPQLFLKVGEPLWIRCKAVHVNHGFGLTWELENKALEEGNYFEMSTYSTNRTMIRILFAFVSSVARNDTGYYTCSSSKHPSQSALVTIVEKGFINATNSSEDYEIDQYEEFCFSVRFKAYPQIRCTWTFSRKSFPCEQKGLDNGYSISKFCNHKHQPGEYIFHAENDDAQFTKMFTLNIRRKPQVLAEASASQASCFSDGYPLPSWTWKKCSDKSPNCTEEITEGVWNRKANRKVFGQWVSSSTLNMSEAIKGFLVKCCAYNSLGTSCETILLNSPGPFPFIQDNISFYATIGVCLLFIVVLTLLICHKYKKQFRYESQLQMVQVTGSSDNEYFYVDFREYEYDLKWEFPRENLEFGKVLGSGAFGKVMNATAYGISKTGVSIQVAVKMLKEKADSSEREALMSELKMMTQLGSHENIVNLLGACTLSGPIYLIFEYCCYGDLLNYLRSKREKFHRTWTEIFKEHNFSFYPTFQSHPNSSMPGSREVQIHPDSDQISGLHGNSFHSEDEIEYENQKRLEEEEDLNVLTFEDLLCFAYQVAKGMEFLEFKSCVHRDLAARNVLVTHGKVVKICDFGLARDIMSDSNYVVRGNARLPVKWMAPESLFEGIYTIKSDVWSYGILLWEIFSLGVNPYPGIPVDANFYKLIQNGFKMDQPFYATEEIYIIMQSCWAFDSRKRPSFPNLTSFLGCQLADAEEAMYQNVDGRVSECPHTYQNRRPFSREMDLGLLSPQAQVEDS
structure (smiles),measurement,setting,value
COc1cc(N(C)c2ccnc3ccc(C(F)(F)F)cc23)cc(OC)c1OC,% binding,[1],100%
C=CC(=O)Nc1ccc(C(=O)Nc2[nH]nc3c2CN(C(=O)N[C@H](CN(C)C)c2ccccc2)C3(C)C)cc1,% of engagement,[2],3.9%
Cn1cc(-n2cnc3c(NCc4nc5cc(Cl)c(Cl)cc5[nH]4)nc(N4CCOCC4)nc32)cn1,% of inhibition,[3],-0.366%
